Where two headings read alike, the source gives them in different places.

Assay [1] deals with T1, CSF1R (Homo sapiens, UniProt P07333). In words: Competition binding assay, CSF1R Kd. More on the design: made in house. A digest of the protocol:
(§1)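 Kinases, either T7 phage fusions or HEK-293-expressed and DNA-tagged, competed with test compounds for immobilized biotinylated affinity ligand on streptavidin beads in binding buffer (20% SeaBlock, 0.17×PBS, 0.05% Tween 20, 6 mM DTT). After 1 hour at room temperature, bead-bound kinase was eluted and quantified by qPCR; Kd from eleven-point threefold dilutions.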

For another assay, the target named is T2, PDGFRβ (Homo sapiens, UniProt P09619).
T2 construct: made in house
T2 sequence (P09619 33-1106): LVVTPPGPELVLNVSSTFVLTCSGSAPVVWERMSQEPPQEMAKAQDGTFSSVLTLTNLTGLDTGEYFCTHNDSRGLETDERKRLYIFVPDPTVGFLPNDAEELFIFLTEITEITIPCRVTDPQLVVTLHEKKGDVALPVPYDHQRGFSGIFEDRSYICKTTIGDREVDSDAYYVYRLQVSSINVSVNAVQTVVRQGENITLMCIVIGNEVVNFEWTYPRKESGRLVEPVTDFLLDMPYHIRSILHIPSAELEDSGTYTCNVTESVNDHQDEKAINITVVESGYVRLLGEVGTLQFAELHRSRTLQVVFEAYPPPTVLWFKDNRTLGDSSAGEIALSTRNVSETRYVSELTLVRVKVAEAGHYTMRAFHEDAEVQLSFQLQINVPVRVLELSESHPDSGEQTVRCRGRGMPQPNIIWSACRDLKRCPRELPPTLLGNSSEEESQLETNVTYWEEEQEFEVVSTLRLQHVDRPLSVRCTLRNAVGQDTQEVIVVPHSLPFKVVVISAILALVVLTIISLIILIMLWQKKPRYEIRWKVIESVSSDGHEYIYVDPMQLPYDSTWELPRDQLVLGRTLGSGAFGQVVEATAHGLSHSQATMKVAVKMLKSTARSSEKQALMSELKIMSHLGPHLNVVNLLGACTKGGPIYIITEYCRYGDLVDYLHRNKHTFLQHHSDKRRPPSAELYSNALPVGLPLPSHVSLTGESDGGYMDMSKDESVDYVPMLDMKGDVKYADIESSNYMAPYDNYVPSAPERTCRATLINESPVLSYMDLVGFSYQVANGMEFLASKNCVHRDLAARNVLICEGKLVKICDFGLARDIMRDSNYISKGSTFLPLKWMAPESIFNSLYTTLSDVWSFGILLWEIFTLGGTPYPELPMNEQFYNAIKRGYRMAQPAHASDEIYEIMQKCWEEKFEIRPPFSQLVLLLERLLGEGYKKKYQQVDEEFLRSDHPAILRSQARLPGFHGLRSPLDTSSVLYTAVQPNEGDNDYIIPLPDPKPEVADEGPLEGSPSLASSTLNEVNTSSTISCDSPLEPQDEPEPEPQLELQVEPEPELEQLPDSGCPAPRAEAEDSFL
In words: Competition binding assay, PDGFRβ Kd. A digest of the protocol: as §1

For the next assay, the target named is T3, KIT (Homo sapiens, UniProt P10721).
T3 construct: made in house
T3 sequence (P10721 26-976): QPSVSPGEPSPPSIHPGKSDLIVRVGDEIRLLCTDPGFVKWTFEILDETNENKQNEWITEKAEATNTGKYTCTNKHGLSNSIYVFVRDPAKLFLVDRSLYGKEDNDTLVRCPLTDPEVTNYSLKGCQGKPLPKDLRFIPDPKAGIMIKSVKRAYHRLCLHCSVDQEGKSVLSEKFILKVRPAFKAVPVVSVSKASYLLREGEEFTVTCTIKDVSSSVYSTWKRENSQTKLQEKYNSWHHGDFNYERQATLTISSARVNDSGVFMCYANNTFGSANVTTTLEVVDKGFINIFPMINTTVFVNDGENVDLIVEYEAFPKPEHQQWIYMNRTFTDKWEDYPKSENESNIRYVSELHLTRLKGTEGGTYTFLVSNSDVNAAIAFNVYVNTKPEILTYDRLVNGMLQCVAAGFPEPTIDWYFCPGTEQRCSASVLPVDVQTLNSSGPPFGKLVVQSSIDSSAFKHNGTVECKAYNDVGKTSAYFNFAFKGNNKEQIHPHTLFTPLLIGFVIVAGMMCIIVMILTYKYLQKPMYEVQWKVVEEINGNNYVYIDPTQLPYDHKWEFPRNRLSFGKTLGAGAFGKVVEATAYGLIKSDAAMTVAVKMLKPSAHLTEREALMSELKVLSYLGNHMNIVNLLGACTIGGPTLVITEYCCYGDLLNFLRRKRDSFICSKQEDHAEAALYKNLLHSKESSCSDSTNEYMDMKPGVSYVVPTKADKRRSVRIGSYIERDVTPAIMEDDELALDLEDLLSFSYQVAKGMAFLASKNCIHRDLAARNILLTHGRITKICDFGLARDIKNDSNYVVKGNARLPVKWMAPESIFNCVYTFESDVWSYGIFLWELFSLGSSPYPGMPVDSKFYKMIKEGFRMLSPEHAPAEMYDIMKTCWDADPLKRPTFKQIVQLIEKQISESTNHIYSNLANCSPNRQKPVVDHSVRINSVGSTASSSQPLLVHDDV
In words: Competition binding assay, KIT Kd. A digest of the protocol:
as §1

Assay [2] has as its target T1, CSF1R. Briefly: HEK293 CSF1R phosphorylation MSD assay. The format is cell-based. The arrangement: expressed in transfected cells; host or cells: HEK293. Particulars: read-out: HEK293 pCSF1R M-CSF MSD:IC50. A digest of the protocol:
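Ligand-induced CSF1R autophosphorylation was measured by MSD sandwich assay: CSF1R-FKBP from lysates captured via FK506, anti-phosphotyrosine readout. Cells were exposed to compound for 2 h (9-point, half-log, 0.5% DMSO) before 5 min 50 ng/mL M-CSF. Reported IC50 is the mean of duplicate-plate IC50s relative to DMSO control.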

For assay [3], the target named is kinase panel containing either 386 or 392 distinct kinases. In words: Kinase selectivity score S10 from competition binding panel. A digest of the protocol:
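S10 is the number of kinases with percent-of-control under 10, divided by all distinct wild-type kinases tested, from a single 10 μM concentration. Binding measured by qPCR of kinase recovered from ligand-coated beads after 1 h equilibrium at room temperature; kinases were phage fusions or DNA-tagged HEK-293 products.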

Where [4] appears, read: 2 h compound, human M-CSF 50 ng/mL for 5 min.
Setting [5] is: compounds at 10 μM, 386 or 392 distinct kinases.

T1 sequence (P07333 20-972): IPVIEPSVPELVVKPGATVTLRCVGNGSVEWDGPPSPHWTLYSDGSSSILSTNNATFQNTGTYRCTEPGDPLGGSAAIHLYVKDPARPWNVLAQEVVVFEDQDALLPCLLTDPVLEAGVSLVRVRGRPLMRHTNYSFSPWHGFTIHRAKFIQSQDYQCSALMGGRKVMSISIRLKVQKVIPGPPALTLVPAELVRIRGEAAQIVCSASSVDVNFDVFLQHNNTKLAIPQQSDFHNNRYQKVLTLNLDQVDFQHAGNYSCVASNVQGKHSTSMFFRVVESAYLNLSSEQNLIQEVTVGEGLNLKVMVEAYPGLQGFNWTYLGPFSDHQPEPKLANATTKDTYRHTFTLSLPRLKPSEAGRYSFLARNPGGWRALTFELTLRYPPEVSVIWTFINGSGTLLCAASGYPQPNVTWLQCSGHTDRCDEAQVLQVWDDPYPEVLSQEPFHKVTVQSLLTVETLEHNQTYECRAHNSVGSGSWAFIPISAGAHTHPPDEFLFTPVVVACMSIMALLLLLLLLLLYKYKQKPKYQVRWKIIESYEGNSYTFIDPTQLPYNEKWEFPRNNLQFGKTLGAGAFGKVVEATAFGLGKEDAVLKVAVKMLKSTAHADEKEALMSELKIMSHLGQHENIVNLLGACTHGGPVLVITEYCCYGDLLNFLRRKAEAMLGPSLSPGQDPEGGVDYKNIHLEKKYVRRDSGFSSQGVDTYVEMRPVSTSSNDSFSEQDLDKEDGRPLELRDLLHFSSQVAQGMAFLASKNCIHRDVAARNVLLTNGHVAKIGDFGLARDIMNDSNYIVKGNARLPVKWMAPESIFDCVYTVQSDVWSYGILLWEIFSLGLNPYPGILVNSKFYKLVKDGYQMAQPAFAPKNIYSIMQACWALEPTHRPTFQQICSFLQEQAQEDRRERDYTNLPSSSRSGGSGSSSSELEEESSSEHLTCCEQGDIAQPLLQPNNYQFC

Turning to `N#Cc1ccc2ncn(Cc3ccc4nc(N[C@@H]5CCCC[C@H]5O)sc4c3)c2n1` [Example 87, 3-((2-(((1R,2R)-2-hydroxycyclohexyl)amino)benzo[d]thiazol-6-yl)methyl)-3H-imidazo[4,5-b]pyridine-5-carbonitrile], the Kd (commonly the concentration at which binding is half-saturated) on CSF1R [1] is at most 5 nM; at PDGFRβ it was at most 50 nM; on KIT it was at most 100 nM. Besides, the IC50 (usually the concentration at which inhibition is half-maximal) on CSF1R [2] (setting [4]) was at most 50 nM. Moreover, the “Kinase specificity S(10)” value in assay [3] (setting [5]) was “B (0.01<B≤0.02)”.
Take “either (1S,2R)-2-((6-((3H-imidazo[4,5-b]pyridin-3-yl)methyl)benzo[d]thiazol-2-yl)amino)-1-methylcyclohexanol or (1R,2R)-2-((6-((3H-imidazo[4,5-b]pyridin-3-yl)methyl)benzo[d]thiazol-2-yl)amino)-1-methylcyclohexanol [Example 59]”: the dissociation constant Kd on CSF1R [1] was 5 to 20 nM; on PDGFRβ it was 50 to 500 nM; on KIT, 100 to 500 nM. Further, the IC50 on CSF1R [2] (setting [4]) was 50 to 200 nM. The “Kinase specificity S(10)” value in assay [3] (setting [5]) is recorded as “C (C>0.02)”.
On to `COc1cc2ncn(Cc3ccc4nc(N[C@@H]5CCCCC[C@H]5O)sc4c3)c2cc1OC` (racemic) [Example 50, (±)-2-((6-((5,6-dimethoxy-1H-benzo[d]imidazol-1-yl)methyl)benzo[d]thiazol-2-yl)amino)cycloheptanol], for which the dissociation constant (Kd) on CSF1R [1] is at most 5 nM; on PDGFRβ, at most 50 nM; at KIT, at most 100 nM. Moreover, the IC50 on CSF1R [2] (setting [4]) is at most 50 nM. Further, in assay [3] (setting [5]), the “Kinase specificity S(10)” value was “C (C>0.02)”.
Take `CON=C(C)c1ccn2c(Cc3ccc4nc(N[C@@H]5CCCC[C@H]5O)sc4c3)cnc2c1` [Example 204, 1-(3-((2-(((1R,2R)-2-hydroxycyclohexyl)amino)benzo[d]thiazol-6-yl)methyl)imidazo[1,2-a]pyridin-7-yl)ethanone O-methyl oxime]: the Kd at CSF1R [1] (competition binding) fell in the range of 5 to 20 nM; on PDGFRβ (competition binding), 50 to 500 nM; at KIT (competition binding), 100 to 500 nM. Also, the IC50 at CSF1R [2] (HEK293 cells, M-CSF stimulated CSF1R phosphorylation, MSD) is 50 to 200 nM. Besides, the “Kinase specificity S(10)” value in assay [3] (10 μM, panel of 386 or 392 distinct kinases) is reported as “A (A≤0.01)”.
For `CCc1cnc2c(c1)ncn2Cc1ccc2nc(N[C@@H]3CCCC[C@H]3O)sc2c1` [Example 102, (1R,2R)-2-((6-((6-ethyl-3H-imidazo[4,5-b]pyridin-3-yl)methyl)benzo[d]thiazol-2-yl)amino)cyclohexanol], the values for the Kd at CSF1R [1], on PDGFRβ and at KIT were 5 to 20 nM, at most 50 nM and at most 100 nM, respectively. The concentration for half-maximal inhibition (IC50) on CSF1R [2] (setting [4]) was at most 50 nM. In addition, the “Kinase specificity S(10)” value in assay [3] (setting [5]) was “B (0.01<B≤0.02)”.
For the compound `O[C@@H]1CCCC[C@H]1Nc1nc2ccc(Cn3cnc4cc(-c5cccnc5)cnc43)cc2s1` [Example 40, (1R,2R)-2-((6-((6-(pyridin-3-yl)-3H-imidazo[4,5-b]pyridin-3-yl)methyl)benzo[d]thiazol-2-yl)amino)cyclohexanol], the results for the Kd at CSF1R [1], at PDGFRβ and on KIT were at most 5 nM, at most 50 nM and at most 100 nM, respectively. At CSF1R [2] (setting [4]), the IC50 was at most 50 nM. Besides, in assay [3] (setting [5]), the “Kinase specificity S(10)” value is “B (0.01<B≤0.02)”.
As for `O=C1CCCC[C@H]1Nc1nc2ccc(Cn3cnc4cccnc43)cc2s1` [Example 54, (R)-2-((6-((3H-imidazo[4,5-b]pyridin-3-yl)methyl)benzo[d]thiazol-2-yl)amino)cyclohexanone], the dissociation constant (Kd) fell in the range of 20 to 50 nM at CSF1R [1], 50 to 500 nM on PDGFRβ and 100 to 500 nM at KIT. Moreover, on CSF1R [2] (setting [4]), the IC50 fell in the range of 50 to 200 nM. In assay [3] (setting [5]), the “Kinase specificity S(10)” value was “A (A≤0.01)”.
Consider `COc1cc2c(cc1C#N)ncn2Cc1ccc2nc(N[C@@H]3CCCC[C@H]3O)sc2c1` [Example 65, 1-((2-(((1R,2R)-2-hydroxycyclohexyl)amino)benzo[d]thiazol-6-yl)methyl)-6-methoxy-1H-benzo[d]imidazole-5-carbonitrile], for which the Kd at CSF1R [1] was 5 to 20 nM; at PDGFRβ, over 2000 nM; on KIT, 500 to 2000 nM. On CSF1R [2] (setting [4]), the half-maximal inhibitory concentration (IC50) lay in the range of 50 to 200 nM. Besides, the “Kinase specificity S(10)” value in assay [3] (setting [5]) is “B (0.01<B≤0.02)”.

The record behind these values is patent US9938261B2, “Heterocyclic compounds and methods of use thereof” (AMBIT BIOSCIENCES CORPORATION, priority 2011, dated 2018).
